{"source": "ChEMBL document CHEMBL5143515", "about": "“Identification of new halogen-containing 2,4-diphenyl indenopyridin-5-one derivative as a boosting agent for the anticancer responses of clinically available topoisomerase inhibitors” (Eur J Med Chem, 2022)", "key": {"[1]": {"biological_target": "T1, DNA topoisomerase 1 (Homo sapiens) (UniProt P11387)", "T1 sequence (whole entry)": "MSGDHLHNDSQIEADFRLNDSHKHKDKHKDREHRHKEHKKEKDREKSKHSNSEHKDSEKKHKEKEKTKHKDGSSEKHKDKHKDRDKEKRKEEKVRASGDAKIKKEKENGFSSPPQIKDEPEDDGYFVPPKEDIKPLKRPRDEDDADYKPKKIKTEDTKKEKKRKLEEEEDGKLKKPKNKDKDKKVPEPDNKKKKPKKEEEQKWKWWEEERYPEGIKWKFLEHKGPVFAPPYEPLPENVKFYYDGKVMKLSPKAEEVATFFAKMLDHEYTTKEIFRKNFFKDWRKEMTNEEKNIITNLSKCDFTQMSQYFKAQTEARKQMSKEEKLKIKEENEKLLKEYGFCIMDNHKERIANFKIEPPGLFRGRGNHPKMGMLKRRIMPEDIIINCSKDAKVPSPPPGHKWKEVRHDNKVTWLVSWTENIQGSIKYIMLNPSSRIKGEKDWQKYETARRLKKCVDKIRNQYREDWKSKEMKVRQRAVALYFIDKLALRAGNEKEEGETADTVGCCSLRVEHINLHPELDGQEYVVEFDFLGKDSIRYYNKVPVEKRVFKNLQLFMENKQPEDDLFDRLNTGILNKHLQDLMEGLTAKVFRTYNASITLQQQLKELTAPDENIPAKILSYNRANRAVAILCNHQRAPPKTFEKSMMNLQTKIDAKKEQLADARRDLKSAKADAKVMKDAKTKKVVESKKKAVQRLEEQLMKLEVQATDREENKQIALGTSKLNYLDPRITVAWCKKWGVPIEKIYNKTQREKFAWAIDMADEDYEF", "experiment": "Inhibition of recombinant human topoisomerase 1 assessed as relaxation of supercoiled plasmid pBR322 DNA at 100 uM by agarose gel electrophoresis (reference value: 83.2%)"}, "[2]": {"biological_target": "DNA topoisomerase 2-alpha (Homo sapiens) (UniProt P11388)", "sequence (P11388 whole entry)": "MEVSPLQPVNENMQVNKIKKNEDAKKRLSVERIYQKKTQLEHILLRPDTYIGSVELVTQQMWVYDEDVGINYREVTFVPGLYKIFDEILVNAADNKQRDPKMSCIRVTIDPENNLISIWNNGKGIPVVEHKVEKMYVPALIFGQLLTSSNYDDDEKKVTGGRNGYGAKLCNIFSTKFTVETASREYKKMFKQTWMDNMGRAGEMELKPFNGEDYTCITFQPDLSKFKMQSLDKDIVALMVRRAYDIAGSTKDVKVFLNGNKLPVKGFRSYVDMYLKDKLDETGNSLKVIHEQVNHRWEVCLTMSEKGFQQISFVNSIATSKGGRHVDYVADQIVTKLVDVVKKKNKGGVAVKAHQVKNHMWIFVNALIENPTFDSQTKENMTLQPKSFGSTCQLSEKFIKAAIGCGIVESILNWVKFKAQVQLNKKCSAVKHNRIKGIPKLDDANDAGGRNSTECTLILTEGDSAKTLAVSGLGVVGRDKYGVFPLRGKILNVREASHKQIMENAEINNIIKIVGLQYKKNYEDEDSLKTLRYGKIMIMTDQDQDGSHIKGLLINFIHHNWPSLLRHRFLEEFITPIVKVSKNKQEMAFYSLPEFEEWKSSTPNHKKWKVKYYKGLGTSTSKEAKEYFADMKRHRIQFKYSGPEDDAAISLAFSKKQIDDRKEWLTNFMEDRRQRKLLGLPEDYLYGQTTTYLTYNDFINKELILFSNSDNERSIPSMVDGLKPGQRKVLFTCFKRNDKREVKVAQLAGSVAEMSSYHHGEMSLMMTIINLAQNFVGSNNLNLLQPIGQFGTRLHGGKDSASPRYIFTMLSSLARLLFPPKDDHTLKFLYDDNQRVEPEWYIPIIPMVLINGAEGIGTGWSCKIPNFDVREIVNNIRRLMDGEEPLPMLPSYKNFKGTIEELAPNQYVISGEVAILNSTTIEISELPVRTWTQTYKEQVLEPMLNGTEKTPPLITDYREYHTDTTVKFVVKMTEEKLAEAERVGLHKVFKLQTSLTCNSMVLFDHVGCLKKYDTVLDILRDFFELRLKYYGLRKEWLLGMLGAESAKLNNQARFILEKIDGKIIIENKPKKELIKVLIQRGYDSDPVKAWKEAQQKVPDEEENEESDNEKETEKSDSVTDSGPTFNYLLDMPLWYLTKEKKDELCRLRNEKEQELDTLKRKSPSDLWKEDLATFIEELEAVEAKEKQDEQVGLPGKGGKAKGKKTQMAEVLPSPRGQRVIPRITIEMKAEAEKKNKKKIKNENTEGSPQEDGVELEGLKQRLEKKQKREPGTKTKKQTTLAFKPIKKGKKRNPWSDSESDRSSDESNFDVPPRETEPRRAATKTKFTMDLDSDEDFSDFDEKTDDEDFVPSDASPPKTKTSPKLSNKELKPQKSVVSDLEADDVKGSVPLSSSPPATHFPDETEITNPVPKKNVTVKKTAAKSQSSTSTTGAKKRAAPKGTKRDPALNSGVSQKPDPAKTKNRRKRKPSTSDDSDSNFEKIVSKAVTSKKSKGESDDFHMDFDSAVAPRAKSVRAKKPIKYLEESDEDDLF", "experiment": "Inhibition of recombinant human topoisomerase 2alpha assessed as relaxation of supercoiled plasmid pBR322 DNA at 20 uM by agarose gel electrophoresis (reference value: 48.4%)"}, "[3]": {"test_system": "DU-145", "experiment": "Antiproliferative activity against human DU-145 cells after 72 hrs by EZ-Cytox colorimetric assay", "assay_type": "functional, cell-based", "conditions": "DU-145, 72 h"}, "[4]": {"test_system": "T47D", "experiment": "Antiproliferative activity against human T47D cells after 72 hrs by EZ-Cytox colorimetric assay", "assay_type": "functional, cell-based"}, "[5]": {"biological_target": "DNA topoisomerase 2-alpha (Homo sapiens) (UniProt P11388)", "experiment": "Catalytic inhibitor of non-intercalative topoisomerase 2alpha (unknown origin) assessed as binding to minor groove at 250 to 500 uM measured by cleavage complex assay", "conditions": "dose 250-500 µM"}, "[6]": {"test_system": "Calf thymus DNA", "experiment": "Binding affinity to calf thymus DNA assessed as DNA intercalation at 5 to 40 uM by fluorescence based EtBr-displacement assay", "assay_type": "nucleic-acid assay", "conditions": "Bos taurus; dose 5-40 µM"}, "[7]": {"test_system": "HCT-15", "experiment": "Synergistic antiproliferative activity against human HCT-15 cells at 5 uM in presence of 1 nM camptothecin after 72 hrs by WST-1 assay", "assay_type": "functional, cell-based"}, "[8]": {"test_system": "HCT-15", "experiment": "Synergistic antiproliferative activity against human HCT-15 cells at 5 uM in presence of 0.2 uM etoposide after 72 hrs by WST-1 assay", "assay_type": "functional, cell-based"}, "[9]": {"test_system": "HCT-15", "experiment": "Induction of apoptosis in human HCT-15 cells assessed as change in c-caspase 7 level at 2 to 5 uM in presence of 1 nM camptothecin and measured by Western blot analysis", "assay_type": "functional, cell-based", "conditions": "dose 2-5 µM"}, "[10]": {"test_system": "HCT-15", "experiment": "Induction of apoptosis in human HCT-15 cells assessed as change in c-PARP level at 2 to 5 uM in presence of 0.2 uM etoposide and measured by Western blot analysis", "assay_type": "functional, cell-based", "conditions": "dose 2-5 µM"}, "[11]": {"test_system": "HCT-15", "experiment": "Antitumor activity against human HCT-15 cells xenografted in female BALB/c nude mouse assessed as tumor growth retardation at 4 mg/kg, ip administered every day for 6 days in combination with etoposide at 2 mg/kg, ip administered every day for 6 days", "assay_type": "functional, organism-based", "conditions": "time 6.0 day"}, "[12]": {"test_system": "HCT-15", "experiment": "Antitumor activity against human HCT-15 cells xenografted in female BALB/c nude mouse assessed as decrease in Ki67 expression at 4 mg/kg, ip administered every day for 6 days in combination with etoposide at 2 mg/kg, ip administered every day for 6 days measured by immunohistochemistry analysis", "assay_type": "functional, organism-based", "conditions": "time 6.0 day"}, "[13]": {"experiment": "Genotoxicity in human HCT-15 cells assessed as production of Ub1-gamma-H2AX at 2 to 5 uM and measured by western blot analysis", "assay_type": "toxicity, cell-based", "conditions": "hct-15, 5 µM, dose 2-5 µM"}, "[14]": {"experiment": "Genotoxicity in human HCT-15 cells assessed as production of gamma-H2AX at 2 to 5 uM and measured by western blot analysis", "assay_type": "toxicity, cell-based", "conditions": "hct-15, 5 µM, dose 2-5 µM"}, "[15]": {"experiment": "Genotoxicity in human HCT-15 cells assessed as production of fragmented DNA tails at 2 to 5 uM and measured by comet assay", "assay_type": "toxicity, cell-based", "conditions": "hct-15, 5 µM, dose 2-5 µM"}, "[16]": {"experiment": "Genotoxicity in human HCT-15 cells assessed as production of Ub1-gamma-H2AX at 2 to 5 uM and measured in presence of 1 nM camptothecin by western blot analysis", "assay_type": "toxicity, cell-based", "conditions": "hct-15, 5 µM, dose 2-5 µM"}, "[17]": {"experiment": "Genotoxicity in human HCT-15 cells assessed as production of Ub1-gamma-H2AX at 2 to 5 uM and measured in presence of 0.2 uM etoposide by western blot analysis", "assay_type": "toxicity, cell-based", "conditions": "hct-15, 5 µM, dose 2-5 µM"}, "[18]": {"experiment": "Genotoxicity in human HCT-15 cells assessed as production of gamma-H2AX at 2 to 5 uM and measured in presence of 1 nM camptothecin by western blot analysis", "assay_type": "toxicity, cell-based", "conditions": "hct-15, 5 µM, dose 2-5 µM"}, "[19]": {"experiment": "Genotoxicity in human HCT-15 cells assessed as production of gamma-H2AX at 2 to 5 uM and measured in presence of 0.2 uM etoposide by western blot analysis", "assay_type": "toxicity, cell-based", "conditions": "hct-15, 5 µM, dose 2-5 µM"}, "[20]": {"experiment": "Genotoxicity in human HCT-15 cells assessed as production of fragmented DNA tails at 2 to 5 uM and measured in presence of 1 nM camptothecin by comet assay", "assay_type": "toxicity, cell-based", "conditions": "hct-15, 5 µM, dose 2-5 µM"}, "[21]": {"experiment": "Toxicity in mouse assessed as reduction in number of white blood cells at 4 mg/kg", "assay_type": "organism-based", "conditions": "in vivo"}, "[22]": {"experiment": "Toxicity in mouse assessed as reduction in number of white blood cells at 4 mg/kg in presence of 2 mg/kg etoposide", "assay_type": "organism-based", "conditions": "in vivo"}, "[23]": {"experiment": "Toxicity in mouse assessed as reduction in number of absolute neutrophil count at 4 mg/kg", "assay_type": "organism-based", "conditions": "in vivo"}, "[24]": {"experiment": "Toxicity in mouse assessed as reduction in number of red blood cells at 4 mg/kg", "assay_type": "organism-based", "conditions": "in vivo"}, "[25]": {"experiment": "Toxicity in mouse assessed as reduction in hemoglobin level at 4 mg/kg", "assay_type": "organism-based", "conditions": "in vivo"}, "[26]": {"experiment": "Toxicity in mouse assessed as increase in mean corpuscular volume of RBC at 4 mg/kg", "assay_type": "organism-based, Erythrocyte", "conditions": "in vivo"}, "[27]": {"experiment": "Toxicity in mouse assessed as increase in d red cell distribution width at 4 mg/kg", "assay_type": "organism-based", "conditions": "in vivo"}, "[28]": {"experiment": "Toxicity in mouse assessed as reduction in number of red blood cells at 4 mg/kg administered in combination with 2 mg/kg etoposide", "assay_type": "organism-based", "conditions": "in vivo"}, "[29]": {"experiment": "Toxicity in mouse assessed as reduction in hemoglobin level at 4 mg/kg administered in combination with 2 mg/kg etoposide", "assay_type": "organism-based", "conditions": "in vivo"}, "[30]": {"experiment": "Toxicity in mouse assessed as increase in mean corpuscular volume of RBC at 4 mg/kg administered in combination with 2 mg/kg etoposide", "assay_type": "organism-based, Erythrocyte", "conditions": "in vivo"}}, "note": "Activity calls are given as the source filed them. The rule behind the calls is not given here.", "data": [{"smiles": "O=C1c2ccccc2-c2nc(-c3ccc(Br)cc3)cc(-c3ccccc3)c21", "values": [{"measurement": "inhibition", "setting": "[1]", "value": 87, "unit": "%"}, {"measurement": "inhibition", "setting": "[2]", "value": 6.6, "unit": "%"}, {"measurement": "IC50", "setting": "[3]", "value": 4.84, "unit": "µM"}, {"measurement": "IC50", "setting": "[4]", "value": 32.7, "unit": "µM"}, {"measurement": "inhibition", "setting": "[5]", "value": "Active"}, {"measurement": "Activity", "setting": "[6]", "value": "Active"}, {"measurement": "Activity", "setting": "[7]", "value": "Active"}, {"measurement": "Activity", "setting": "[8]", "value": "Active"}, {"measurement": "Activity", "setting": "[9]", "value": "Active"}, {"measurement": "Activity", "setting": "[10]", "value": "Active"}, {"measurement": "Activity", "setting": "[11]", "value": "Active"}, {"measurement": "Activity", "setting": "[12]", "value": "Active"}, {"measurement": "Activity", "setting": "[13]", "value": "Non-Toxic"}, {"measurement": "Activity", "setting": "[14]", "value": "Non-Toxic"}, {"measurement": "Activity", "setting": "[15]", "value": "Non-Toxic"}, {"measurement": "Activity", "setting": "[16]", "value": "Non-Toxic"}, {"measurement": "Activity", "setting": "[17]", "value": "Non-Toxic"}, {"measurement": "Activity", "setting": "[18]", "value": "Non-Toxic"}, {"measurement": "Activity", "setting": "[19]", "value": "Non-Toxic"}, {"measurement": "Activity", "setting": "[20]", "value": "Non-Toxic"}, {"measurement": "Activity", "setting": "[21]", "value": "Non-Toxic"}, {"measurement": "Activity", "setting": "[22]", "value": "Non-Toxic"}, {"measurement": "Activity", "setting": "[23]", "value": "Non-Toxic"}, {"measurement": "Activity", "setting": "[24]", "value": "Non-Toxic"}, {"measurement": "Activity", "setting": "[25]", "value": "Non-Toxic"}, {"measurement": "Activity", "setting": "[26]", "value": "Non-Toxic"}, {"measurement": "Activity", "setting": "[27]", "value": "Non-Toxic"}, {"measurement": "Activity", "setting": "[28]", "value": "Non-Toxic"}, {"measurement": "Activity", "setting": "[29]", "value": "Non-Toxic"}, {"measurement": "Activity", "setting": "[30]", "value": "Non-Toxic"}]}]}
